{"source": "patent EP1121151B1", "about": "“ANTI-INFLAMMATORY ALPHA2, BETA1 INTEGRIN-RELATED SUBSTANCES OR ANTIBODIES” (Lindbom, Lennart, priority 1998, dated 2006)", "tested_on": "PMN", "assay": "Intravital time lapse videomicroscopy of PAF-stimulated PMN locomotion in rat mesenteric tissue in vivo", "conditions": "rat mesentery, PAF 10^-7 M", "method": "Intravital time lapse videomicroscopy of PMN locomotion in vivo. PMN locomotion in rat mesenteric tissue was studied through use of intravital time lapse videomicroscopy according to the protocol previously described in detail (Werr et al., supra). In brief, Wistar rats (200-250 g) were anesthetized with equal parts of fluanison/fentanyl (10/0.2 mg/ml; Hypnorm; Janssen-Cilag Ltd., Saunderton, UK) and midazolam (5 mg/ml; Dormicum; Hoffman-La Roche, Basel, Switzerland) diluted 1:1 with sterile water (2 ml/kg i.m.). Body temperature was maintained at 37° C by a heating pad connected to a rectal thermistor. After laparotomy, a segment of the ileum was exposed on a heated transparent pedestal to allow microscopic observation of the mesenteric microvasculature (Orthoplan microscope equipped with water immersion lens SW×25, NA 0.60; Leitz, Wetzlar, Germany). The microscopic image was televised and recorded on time lapse video (at 1/7 of normal speed). Analysis of leukocyte migration in the mesenteric tissue was made off line and the migration path of individual leukocytes was tracked with a digital image analyzer. […]"}
{"sequence": "ACRGDGWMCG", "values": [{"measurement": "effect on PMN migration at ten-fold higher concentrations", "setting": "ten-fold higher concentrations than 500 µM, some experiments", "result": "did not yield different effects"}, {"measurement": "effect on PMN migration", "setting": "topical administration, peptide 500 µM", "result": "without effect"}]}
